The source of these data is article PMC6742641, “Design, synthesis and biological evaluation of a series of CNS penetrant HDAC inhibitors structurally derived from amyloid-β probes” (Scientific Reports, 2019).

The structures appear in SMILES notation.

For the assay, the target named is T1, HDAC6 (Homo sapiens, UniProt Q9UBN7).
T1 construct: purchased BPS Biosciences
T1 sequence (Q9UBN7 1-1215): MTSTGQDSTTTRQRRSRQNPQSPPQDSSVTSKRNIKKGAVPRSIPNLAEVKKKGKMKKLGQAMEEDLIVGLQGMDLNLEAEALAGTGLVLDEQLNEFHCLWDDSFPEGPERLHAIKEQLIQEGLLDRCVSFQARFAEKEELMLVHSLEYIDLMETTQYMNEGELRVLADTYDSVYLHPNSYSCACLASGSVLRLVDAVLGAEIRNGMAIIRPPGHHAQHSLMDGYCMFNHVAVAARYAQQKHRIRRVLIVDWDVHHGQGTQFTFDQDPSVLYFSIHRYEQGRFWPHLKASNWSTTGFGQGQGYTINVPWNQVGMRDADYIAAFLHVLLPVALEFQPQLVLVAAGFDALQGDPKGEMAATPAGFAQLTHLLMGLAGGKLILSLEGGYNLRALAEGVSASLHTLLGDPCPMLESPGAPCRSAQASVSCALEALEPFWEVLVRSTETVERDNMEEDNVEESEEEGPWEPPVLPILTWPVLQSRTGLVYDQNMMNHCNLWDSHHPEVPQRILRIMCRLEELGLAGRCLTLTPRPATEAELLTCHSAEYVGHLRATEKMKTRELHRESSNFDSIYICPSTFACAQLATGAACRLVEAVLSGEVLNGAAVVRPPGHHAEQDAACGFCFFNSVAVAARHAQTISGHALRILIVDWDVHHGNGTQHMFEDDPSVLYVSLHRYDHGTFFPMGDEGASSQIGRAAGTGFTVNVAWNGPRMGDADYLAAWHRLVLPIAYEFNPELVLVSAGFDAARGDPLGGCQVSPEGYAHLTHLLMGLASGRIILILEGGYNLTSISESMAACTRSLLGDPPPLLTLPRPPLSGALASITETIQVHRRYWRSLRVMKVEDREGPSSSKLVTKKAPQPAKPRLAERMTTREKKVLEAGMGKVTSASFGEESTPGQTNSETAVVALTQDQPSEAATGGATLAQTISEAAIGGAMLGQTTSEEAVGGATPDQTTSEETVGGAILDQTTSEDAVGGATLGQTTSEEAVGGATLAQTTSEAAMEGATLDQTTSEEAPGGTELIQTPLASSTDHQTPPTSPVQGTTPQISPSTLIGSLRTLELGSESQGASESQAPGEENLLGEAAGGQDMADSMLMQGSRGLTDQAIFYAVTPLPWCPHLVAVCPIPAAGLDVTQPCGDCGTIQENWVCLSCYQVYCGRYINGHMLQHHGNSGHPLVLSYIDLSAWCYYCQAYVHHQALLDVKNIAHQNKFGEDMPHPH
The assay can be described thus: HDAC activity assay (fluorimetric, BPS Biosciences). Conditions: class IIb in Table 4; mean ± SD (n = 2). In kind it is biochemical. The protocol: HDAC1, 3, 6 and 7 activity assays were performed according to the manufacturer’s protocol (BPS Biosciences). […] The HDAC assay developer was added to the mixture and incubated the plate at rt for 15 min. The fluorescence intensity was measured using a Tecan Infinite F200 Pro plate reader.

Consider `O=C(NO)c1ccc(-c2nc3ccccc3s2)cc1` [Compound 9b], for which the IC50 was 95.9 ± 0.78 nM.
